Data reported in PubChem BioAssay (NCI).
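These data come from cells grown in 96-well plates and exposed to compound for 48 hours at five concentrations. Abbreviation: GI50, concentration required for 50% inhibition of growth. At the TGI there is no net growth.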

Columns and labels:
Experiment in all cases: NCI tumour cell line growth inhibition, 48 h
786-0 renal = system: 786-0 renal
OVCAR-3 ovarian = system: OVCAR-3 ovarian
UACC-62 melanoma = system: UACC-62 melanoma
K-562 leukemia = system: K-562 leukemia
SW-620 colon = system: SW-620 colon
NCI-H460 lung = system: NCI-H460 lung
SK-MEL-2 melanoma = system: SK-MEL-2 melanoma
UO-31 renal = system: UO-31 renal
LOX IMVI melanoma = system: LOX IMVI melanoma
RPMI-8226 leukemia = system: RPMI-8226 leukemia

| Compound | GI50 (786-0 renal) [µM] | TGI (786-0 renal) [µM] | GI50 (OVCAR-3 ovarian) [µM] | TGI (OVCAR-3 ovarian) [µM] | GI50 (UACC-62 melanoma) [µM] | TGI (UACC-62 melanoma) [µM] | GI50 (K-562 leukemia) [µM] | TGI (K-562 leukemia) [µM] | GI50 (SW-620 colon) [µM] | TGI (SW-620 colon) [µM] | GI50 (NCI-H460 lung) [µM] | TGI (NCI-H460 lung) [µM] | GI50 (SK-MEL-2 melanoma) [µM] | TGI (SK-MEL-2 melanoma) [µM] | GI50 (UO-31 renal) [µM] | TGI (UO-31 renal) [µM] | GI50 (LOX IMVI melanoma) [µM] | TGI (LOX IMVI melanoma) [µM] | GI50 (RPMI-8226 leukemia) [µM] | TGI (RPMI-8226 leukemia) [µM] |
| --- | --- | --- | --- | --- | --- | --- | --- | --- | --- | --- | --- | --- | --- | --- | --- | --- | --- | --- | --- | --- |
| CN1C(=O)[C@@H](NC(=O)[C@H](CCC(F)(F)F)[C@H](CCC(F)(F)F)C(N)=O)N=C(c2ccccc2)c2ccccc21 | > 100 | > 100 | > 100 | > 100 | 35.7 | > 100 | > 100 | > 100 | > 100 | > 100 | 83.4 | > 100 | > 100 | > 100 | 49 | > 100 | > 100 | > 100 | 58.7 | > 100 |
| Cc1ccc(NC(=O)C(=O)CC(=O)C2CCOC2=O)c(C)c1 (centres undefined) |  | > 100 |  | > 100 |  | > 100 |  | > 100 |  | > 100 |  | > 100 |  | > 100 |  | > 100 |  | > 100 |  | > 100 |
| N#CSc1c[nH]c2ccc(/C=C/C(=O)/C=C(/C=C/c3ccc4[nH]cc(SC#N)c4c3)OB(F)F)cc12 | 0.343 | 3.44 | 0.264 | 0.762 | 1.2 | 2.85 | 0.281 | > 100 | 0.333 | 1.16 | 0.763 | 2.37 | 2.92 | 8.04 | 0.212 | 0.808 | 0.202 | 0.571 | 0.522 |  |
| CCN(CC)c1ccc2c(c1)Oc1nc(N)c(C#N)c(N)c1C2Sc1ccc(OC)cc1 (centres undefined) | 1.74 | 3.22 | 1.69 | 3.1 | 1.72 | 3.34 | 2.61 | 8.07 | 1.9 | 3.62 | 1.94 | 3.81 | 1.56 | 3.14 | 1.52 | 2.85 | 1.56 | 3.07 | 1.96 | 5.02 |
| COC1=CC(=O)C(OC)=C(OC)C1=O | 18.3 | 32.5 | 17.2 | 31.1 | 14.4 | 27.9 | 2.29 | 6.05 | 18 | 35.1 | 77 | > 100 | 9.98 | 33.1 | 13 | 26.3 | 12 | 25.1 | 14.7 | 42.9 |
| O/N=C1/C(=C/c2ccc(Oc3ccccc3)cc2)CCCC1C(NO)c1ccc(Oc2ccccc2)cc1 (centres undefined) |  | > 100 |  | > 100 |  | > 100 |  | > 100 |  | > 100 |  | > 100 |  | > 100 |  | 76.4 |  | 29.1 |  | 76.1 |
| Nc1ccccc1NC(=O)c1ccc(CCCC(=O)Nc2ccc(C3CC3N)cc2)cc1 (centres undefined) | 3.5 | 39.3 | 1.91 | 11.3 | 0.573 | 3.03 | 0.658 | > 100 | 1.08 | 29.5 | 2.63 | > 100 | 1.55 | 7.26 | 4.62 | 20.6 | 1.45 | 3.47 | 2.79 | 24.2 |
| Nc1nc2cc3ccc(C4CC(O)C(CO)O4)cc3cc2c(=O)[nH]1 (centres undefined) | > 100 | > 100 | > 100 | > 100 | > 100 | > 100 | > 100 | > 100 | > 100 | > 100 | > 100 | > 100 | 0.0927 | > 100 | 94.6 | > 100 | > 100 | > 100 | > 100 | > 100 |
| COC(=O)CCC(=O)Nc1cc(Cl)ccc1Cl |  | > 100 |  | > 100 |  | > 100 |  | > 100 |  | > 100 |  | > 100 |  | > 100 |  | > 100 |  | > 100 |  | > 100 |
| O=S(=O)(SCc1ccccc1)C(c1ccccc1)c1ccccc1 |  | > 100 |  | > 100 |  | 85.7 |  | > 100 |  | 26.9 |  | > 100 |  | > 100 |  | > 100 |  | > 100 |  | 85.6 |
| CC1=C(C(=O)Nc2cc(=O)n(C)c(=O)n2C)C(c2ccc([N+](=O)[O-])cc2)C(C(=O)Nc2cc(=O)n(C)c(=O)n2C)=C(C)N1 |  | > 100 |  | > 100 |  | > 100 |  | > 100 |  | > 100 |  | > 100 |  | > 100 |  | > 100 |  | > 100 |  | > 100 |
| Cc1[nH]c2ccccc2c1-c1cc(-c2cc(-c3c(C)[nH]c4ccccc34)nc(N)n2)nc(N)n1 |  | > 100 |  | > 100 |  | > 100 |  | > 100 |  | > 100 |  | > 100 |  | > 100 |  | > 100 |  | > 100 |  | > 100 |
| COc1ccc(N/N=C(\CCN(C)C)c2ccccc2)cc1 |  | 12.4 |  | 11.4 |  | 6.23 |  | 7.31 |  | 10.9 |  | 10.8 |  | 18.9 |  | 3.99 |  | 7.74 |  | 7.5 |
| CN(C)CCNC(=O)c1cccc2c(Nc3ccc(S(N)(=O)=O)cc3)c3ccccc3nc12 |  | 4.92 |  | 5.85 |  | 3.42 |  | 9.61 |  | 1.96 |  | 1.96 |  | 3.69 |  | 7.44 |  | 2.59 |  | 77.2 |
| CS(=O)(=O)CCNCc1ccc(-c2ccc3ncnc(Nc4ccc(OCc5cccc(F)c5)c(C(F)(F)F)c4)c3c2)o1 | 4.68 | 11.1 | 4.07 | 8.47 | 3.94 | 7.48 | 5.07 | 20 | 4.15 | 7.93 | 4.1 | 8.51 | 4.51 | 8.96 | 3.36 | 8.42 | 3.96 | 8.13 | 4.79 | 15.6 |
